According to article PMC6100082, “Pyridine-Ureas as Potential Anticancer Agents: Synthesis and In Vitro Biological Evaluation” (Molecules : A Journal of Synthetic Chemistry and Natural …, 2018):
Read-outs that look alike come from different tables or passages of the source.

Columns and labels:
[1] = tested on: breast cancer MCF-7 cell line; experiment: In vitro anti-proliferative activity, MTT assay; format: cell-based, human; conditions: Homo sapiens, MCF-7, MTT
In short: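 Cells were grown in DMEM with 10% heat-inactivated FBS, 10 μg/mL insulin and 1% penicillin-streptomycin. Anti-proliferative activity was measured by MTT colorimetric read-out, in triplicate. Values are the mean of at least three separate experiments.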

COLO 205 = experiment: NCI one-dose SRB assay (Colon Cancer); format: cell-based, human
In short: (§1)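 Cells were treated with compound at 10^−5 M. After 48 h, growth was estimated with sulforhodamine B. Inhibition was given as GI%.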

HCC-2998 = experiment: NCI one-dose SRB assay (Colon Cancer); format: cell-based, human
In short: as §1

HCT-116 = experiment: NCI one-dose SRB assay (Colon Cancer); format: cell-based, human
In short: as §1

HCT-15 = experiment: NCI one-dose SRB assay (Colon Cancer); format: cell-based, human
In short: as §1

HT29 = experiment: NCI one-dose SRB assay (Colon Cancer); format: cell-based, human
In short: as §1

KM12 = experiment: NCI one-dose SRB assay (Colon Cancer); format: cell-based, human
In short: as §1

SW-620 = experiment: NCI one-dose SRB assay (Colon Cancer); format: cell-based, human
In short: as §1

LOX IMVI = experiment: NCI one-dose SRB assay (Melanoma); format: cell-based, human
In short: as §1

M14 = experiment: NCI one-dose SRB assay (Melanoma); format: cell-based, human
In short: as §1

MALME-3M = experiment: NCI one-dose SRB assay (Melanoma); format: cell-based, human
In short: as §1

MDA-MB-435 = experiment: NCI one-dose SRB assay (Melanoma); format: cell-based, human
In short: as §1

SK-MEL-28 = experiment: NCI one-dose SRB assay (Melanoma); format: cell-based, human
In short: as §1

SK-MEL-2 = experiment: NCI one-dose SRB assay (Melanoma); format: cell-based, human
In short: as §1

SK-MEL-5 = experiment: NCI one-dose SRB assay (Melanoma); format: cell-based, human
In short: as §1

UACC-257 = experiment: NCI one-dose SRB assay (Melanoma); format: cell-based, human
In short: as §1

UACC-62 = experiment: NCI one-dose SRB assay (Melanoma); format: cell-based, human
In short: as §1

BT-549 = experiment: NCI one-dose SRB assay (Breast Cancer); format: cell-based, human
In short: as §1

HS 578T = experiment: NCI one-dose SRB assay (Breast Cancer); format: cell-based, human
In short: as §1

MCF7 = experiment: NCI one-dose SRB assay (Breast Cancer); format: cell-based, human
In short: as §1

MDA-MB-231 = experiment: NCI one-dose SRB assay (Breast Cancer); format: cell-based, human
In short: as §1

MDA-MB-468 = experiment: NCI one-dose SRB assay (Breast Cancer); format: cell-based, human
In short: as §1

T-47D = experiment: NCI one-dose SRB assay (Breast Cancer); format: cell-based, human
In short: as §1

[2] = Homo sapiens, 10 μM, read-out: Percentage growth inhibition (GI%)

Structure (SMILES): COc1ccc(NC(=O)Nc2ccc(-c3ccc(OC)c(OC)c3)nc2C)cc1 [Compound 8n, 1-(6-(3,4-Dimethoxyphenyl)-2-methylpyridin-3-yl)-3-(4-methoxyphenyl) Urea]
- IC50 ([1]; MCF7, 48 h, 48 h of incubation, read-out: IC50 48 h): 1880 ± 120 nM
- IC50 ([1]; MCF7, 72 h, 72 h of incubation, read-out: IC50 72 h): 800 ± 70 nM
- Growth Percent (COLO 205; COLO 205, 1.00E-5 Molar): 91.95%
- inhibition at 10 µM (COLO 205; Homo sapiens, COLO 205, 10 μM, read-out: Percentage growth inhibition (GI%)): < 10%
- Growth Percent (HCC-2998; HCC-2998, 1.00E-5 Molar): 83.10%
- inhibition at 10 µM (HCC-2998; Homo sapiens, HCC-2998, 10 μM, read-out: Percentage growth inhibition (GI%)): 17%
- Growth Percent (HCT-116; HCT-116, 1.00E-5 Molar): 49.40%
- inhibition at 10 µM (HCT-116; Homo sapiens, HCT-116, 10 μM, read-out: Percentage growth inhibition (GI%)): 51%
- Growth Percent (HCT-15; HCT-15, 1.00E-5 Molar): 91.77%
- inhibition at 10 µM (HCT-15; Homo sapiens, HCT-15, 10 μM, read-out: Percentage growth inhibition (GI%)): < 10%
- Growth Percent (HT29; HT29, 1.00E-5 Molar): 68.76%
- inhibition at 10 µM (HT29; Homo sapiens, HT-29, HT29, 10 μM, read-out: Percentage growth inhibition (GI%)): 32%
- inhibition at 10 µM (KM12; Homo sapiens, KM12, 10 μM, read-out: Percentage growth inhibition (GI%)): 55%
- Growth Percent (KM12; KM12, 1.00E-5 Molar): 45.29%
- inhibition at 10 µM (SW-620; Homo sapiens, SW-620, 10 μM, read-out: Percentage growth inhibition (GI%)): 36%
- Growth Percent (SW-620; SW-620, 1.00E-5 Molar): 64.84%
- Growth Percent (LOX IMVI; 1.00E-5 Molar): 88.83%
- inhibition at 10 µM (LOX IMVI; [2]): 12%
- inhibition at 10 µM (M14; Homo sapiens, M14, 10 μM, read-out: Percentage growth inhibition (GI%)): 28%
- Growth Percent (M14; M14, 1.00E-5 Molar): 72.14%
- Growth Percent (MALME-3M; 1.00E-5 Molar): 44.12%
- inhibition at 10 µM (MALME-3M; [2]): 56%
- inhibition at 10 µM (MDA-MB-435; Homo sapiens, MDA-MB-435, 10 μM, read-out: Percentage growth inhibition (GI%)): 35%
- Growth Percent (MDA-MB-435; MDA-MB-435, 1.00E-5 Molar): 65.17%
- inhibition at 10 µM (SK-MEL-28; Homo sapiens, SK-MEL-28, 10 μM, read-out: Percentage growth inhibition (GI%)): 14%
- Growth Percent (SK-MEL-28; SK-MEL-28, 1.00E-5 Molar): 86.76%
- inhibition at 10 µM (SK-MEL-2; Homo sapiens, SK-MEL-2, 10 μM, read-out: Percentage growth inhibition (GI%)): 21%
- Growth Percent (SK-MEL-2; SK-MEL-2, 1.00E-5 Molar): 79.55%
- inhibition at 10 µM (SK-MEL-5; Homo sapiens, SK-MEL-5, 10 μM, read-out: Percentage growth inhibition (GI%)): 78%
- Growth Percent (SK-MEL-5; SK-MEL-5, 1.00E-5 Molar): 22.98%
- inhibition at 10 µM (UACC-257; Homo sapiens, UACC-257, 10 μM, read-out: Percentage growth inhibition (GI%)): 45%
- Growth Percent (UACC-257; UACC-257, 1.00E-5 Molar): 55.47%
- inhibition at 10 µM (UACC-62; Homo sapiens, UACC-62, 10 μM, read-out: Percentage growth inhibition (GI%)): 41%
- Growth Percent (UACC-62; UACC-62, 1.00E-5 Molar): 59.87%
- Growth Percent (BT-549; BT-549, 1.00E-5 Molar): 50.44%
- inhibition at 10 µM (BT-549; Homo sapiens, BT-549, 10 μM, read-out: Percentage growth inhibition (GI%)): 50%
- Growth Percent (HS 578T; 1.00E-5 Molar): 39.96%
- inhibition at 10 µM (HS 578T; [2]): 61%
- inhibition at 10 µM (MCF7; Homo sapiens, MCF7, 10 μM, read-out: Percentage growth inhibition (GI%)): 35%
- Growth Percent (MCF7; MCF7, 1.00E-5 Molar): 65.14%
- inhibition at 10 µM (MDA-MB-231; Homo sapiens, MDA-MB-231, 10 μM, read-out: Percentage growth inhibition (GI%)): 60%
- Growth Percent (MDA-MB-231; MDA-MB-231/ATCC, 1.00E-5 Molar): 40.48%
- inhibition at 10 µM (MDA-MB-468; Homo sapiens, MDA-MB-468, 10 μM, read-out: Percentage growth inhibition (GI%)): 17%
- Growth Percent (MDA-MB-468; MDA-MB-468, 1.00E-5 Molar): 83.00%
- Growth Percent (T-47D; 1.00E-5 Molar): 60.36%
- inhibition at 10 µM (T-47D; Homo sapiens, T47D, 10 μM, read-out: Percentage growth inhibition (GI%)): 40%
- melting point: 253 to 254 °C
